{"source": "patent US11466020B2", "about": "“Compounds and compositions for inhibition and elimination of Zika infection and uses for same” (Cornell University, priority 2017, dated 2022)", "key": {"ZIKV (MR766 strain) [1]": {"system": "ZIKV (MR766 strain)", "experiment": "qRT-PCR of total and (-) strand vRNA in hNPCs treated 24-48 h post-infection (MR766)", "format": "cell-based, Zika virus", "description": "To further evaluate the therapeutic potential of HH, qRT-PCR analysis was performed to monitor the dynamics of ZIKV vRNA expression (MR766 strain) in hNPCs. Both total and replicating (−) strand of ZIKV vRNAs could be detected at 24 h post-infection, and the vRNA level kept increasing at 36 h and 48 h post-infection (FIG. 2J). […] In addition, to determine the effect of HH on hNPCs derived from different donors, 25 μM HH or DMSO control was added to the hNPCs derived from either of two additional donors at 24 h post-infection. […] Moreover, we evaluated the dynamics of ZIKV vRNA expression (FSS13025 strain) in hNPCs.\nTo monitor ZIKV dynamics in hNPCs, hNPCs were infected with ZIKV (MR766 strain, MOI=0.125, FSS13025 strain MOI=0.1) for 2 h, and changed to virus-free medium. The cells were maintained in NPC medium with daily medium change. The cells were lysed at the different time points and analyzed using qRT-PCR.\nRNA Extraction and qRT-PCR. Total RNA of cultured cells and organs was extracted with RNeasy plus mini kit (Qiagen). vRNA from cell culture supernatant or mouse serum was extracted with QIAampe viral RNA mini kit (Qiagen). […] ZIKV vRNA levels were calculated using a standard curve generated using serial 10-fold dilutions of ZIKV vRNA."}, "ZIKV (MR766 strain) [2]": {"system": "ZIKV (MR766 strain)", "experiment": "Therapeutic treatment of ZIKV (MR766 strain) infected SCID-beige mice", "format": "in vivo", "details": "HH 100 mg/kg/day subcutaneously for 5 days from day 5 post-infection", "description": "(A) Scheme of prophylactic treatment of HH in vivo. HH was administrated to SCID-Beige mice 12 h before infection with MR766 virus strain. HH was injected at a dose of 100 mg/kg/day subcutaneously and euthanized at day 7. (B) qRT-PCR analysis of total ZIKV vRNA in liver, spleen, kidney and brain of ZIKV infected mice. n=12 for liver, spleen and kidney and 20 for brain. (C) qRT-PCR analysis of total ZIKV vRNA in brains of ZIKV-infected mice treated with vehicle (n=14) or HH (n=8). […] (D-F) Immunohistochemical analysis of adult cortex. […] HH prevents infection in all cortical cells. Scale bar=100 μm in (D) and 10 μm in (E, F). (G-I) Immunohistochemical analysis of adult hippocampus. […] HH inhibits infection of all cells in the hippocampus. […] The mice were then euthanized and RNA from brains was analyzed using qRT-PCR. […] The mice were euthanized after 7 days treatment and RNA from brains was analyzed using qRT-PCR. (W, X) qRT-PCR analysis of total vRNA (W) and (−) strand RNA (X) in the brains of mice treated with vehicle (n=8) or HH (n=11) at day 7 post-infection. p values were calculated by one-way repeated measures ANOVA or two-way repeated measures ANOVA with a Bonferroni test for multiple comparisons. *p<0.05, **p<0.01 and ***p<0.001.\nTo evaluate the therapeutic potential of HH, we first monitored the kinetics of ZIKV infection (MR766 strain) in the adult mouse brain. […]"}}, "note": "Where a name gives a salt, the structure may show the parent alone.", "data": [{"molecule": "CN1CCC2=C[C@H](O)[C@H]3OC(=O)c4cc5c(cc4[C@H]3[C@@H]21)OCO5", "note": "[HH, hippeastrine hydrobromide]", "values": [{"measurement": "total and replicating (-) ZIKV vRNA levels in hNPCs", "setting": "ZIKV (MR766 strain) [1]; 25 μM added at 24 h, 36 h or 48 h post-infection, additional 3 days", "value": "successfully suppressed"}, {"measurement": "total and replicating (-) strand ZIKV vRNAs in hNPCs from two additional donors", "setting": "ZIKV (MR766 strain) [1]; 25 μM added at 24 h post-infection", "value": "consistently suppressed"}, {"measurement": "total and replicating (-) vRNA levels in brain", "setting": "ZIKV (MR766 strain) [2]", "value": "significantly decreased"}]}]}
